Test results published in patent US11572590B2, “Methods for evaluating tumor cell spheroids using 3D microfluidic cell culture device” (Dana-Farber Cancer Institute, Inc., priority 2017, dated 2023).
Like-named read-outs stand apart in the source and are kept apart here.

How the values were obtained:
Test in all cases: SelectScreen Kinase Profiling, single point inhibition and IC50 for off-target kinases
Format in all cases: biochemical
[1] = molecular target: off-target kinases (Homo sapiens, UniProt P29317); conditions: EPHA2, ZLYTE, ATP Km app
Chain of off-target kinases (Homo sapiens, UniProt P29317) (P29317 24-976): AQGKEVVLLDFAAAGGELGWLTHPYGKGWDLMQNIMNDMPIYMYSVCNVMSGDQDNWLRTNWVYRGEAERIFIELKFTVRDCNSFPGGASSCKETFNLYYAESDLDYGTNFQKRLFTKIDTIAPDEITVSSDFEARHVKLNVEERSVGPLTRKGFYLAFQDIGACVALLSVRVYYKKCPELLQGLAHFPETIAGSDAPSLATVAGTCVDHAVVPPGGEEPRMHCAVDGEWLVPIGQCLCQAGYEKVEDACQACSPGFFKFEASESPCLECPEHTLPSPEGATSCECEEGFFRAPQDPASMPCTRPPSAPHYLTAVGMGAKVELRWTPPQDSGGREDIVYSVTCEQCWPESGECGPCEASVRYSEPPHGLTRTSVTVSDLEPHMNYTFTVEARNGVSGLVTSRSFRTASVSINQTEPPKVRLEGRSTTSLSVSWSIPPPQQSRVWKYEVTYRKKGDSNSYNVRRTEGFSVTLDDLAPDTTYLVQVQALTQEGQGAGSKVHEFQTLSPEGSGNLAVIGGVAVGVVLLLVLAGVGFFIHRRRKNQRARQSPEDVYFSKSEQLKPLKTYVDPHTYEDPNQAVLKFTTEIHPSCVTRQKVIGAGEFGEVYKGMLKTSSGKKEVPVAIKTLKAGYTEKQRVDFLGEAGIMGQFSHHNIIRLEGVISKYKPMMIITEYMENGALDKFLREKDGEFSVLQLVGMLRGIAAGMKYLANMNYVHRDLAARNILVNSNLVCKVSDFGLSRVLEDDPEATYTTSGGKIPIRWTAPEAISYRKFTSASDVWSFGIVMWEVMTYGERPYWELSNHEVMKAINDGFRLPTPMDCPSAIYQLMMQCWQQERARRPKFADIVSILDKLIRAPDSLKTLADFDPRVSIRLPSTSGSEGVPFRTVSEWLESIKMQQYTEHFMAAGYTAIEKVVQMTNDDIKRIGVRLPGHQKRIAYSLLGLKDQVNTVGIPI

[2] = molecular target: off-target kinases (Homo sapiens, UniProt Q9BUB5); conditions: MKNK1 (MNK1), ATP Km app, ZLYTE
Chain of off-target kinases (Homo sapiens, UniProt Q9BUB5) (Q9BUB5 whole entry): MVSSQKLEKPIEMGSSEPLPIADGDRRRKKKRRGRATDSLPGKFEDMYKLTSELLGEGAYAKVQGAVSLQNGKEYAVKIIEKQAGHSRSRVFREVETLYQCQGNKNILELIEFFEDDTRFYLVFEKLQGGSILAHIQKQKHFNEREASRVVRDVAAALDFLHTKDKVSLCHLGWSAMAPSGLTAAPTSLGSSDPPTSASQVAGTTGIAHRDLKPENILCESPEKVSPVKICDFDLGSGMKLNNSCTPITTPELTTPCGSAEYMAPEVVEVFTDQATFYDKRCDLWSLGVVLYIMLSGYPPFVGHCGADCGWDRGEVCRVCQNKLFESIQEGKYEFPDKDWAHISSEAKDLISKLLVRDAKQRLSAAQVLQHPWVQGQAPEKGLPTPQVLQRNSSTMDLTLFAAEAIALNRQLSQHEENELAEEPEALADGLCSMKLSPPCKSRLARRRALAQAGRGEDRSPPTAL

[3] = molecular target: off-target kinases (Homo sapiens, UniProt Q13705); conditions: ACVR2B, LanthaScreen Binding
[4] = molecular target: off-target kinases (Homo sapiens, UniProt P10721, T670I); conditions: KIT T670I (mutant), ZLYTE, ATP Km app
[5] = molecular target: off-target kinases (Homo sapiens, UniProt P00519, E255K); conditions: ABL1 E255K, ATP Km app, ZLYTE
Chain of off-target kinases (Homo sapiens, UniProt P00519, E255K) (P00519 whole entry E255K): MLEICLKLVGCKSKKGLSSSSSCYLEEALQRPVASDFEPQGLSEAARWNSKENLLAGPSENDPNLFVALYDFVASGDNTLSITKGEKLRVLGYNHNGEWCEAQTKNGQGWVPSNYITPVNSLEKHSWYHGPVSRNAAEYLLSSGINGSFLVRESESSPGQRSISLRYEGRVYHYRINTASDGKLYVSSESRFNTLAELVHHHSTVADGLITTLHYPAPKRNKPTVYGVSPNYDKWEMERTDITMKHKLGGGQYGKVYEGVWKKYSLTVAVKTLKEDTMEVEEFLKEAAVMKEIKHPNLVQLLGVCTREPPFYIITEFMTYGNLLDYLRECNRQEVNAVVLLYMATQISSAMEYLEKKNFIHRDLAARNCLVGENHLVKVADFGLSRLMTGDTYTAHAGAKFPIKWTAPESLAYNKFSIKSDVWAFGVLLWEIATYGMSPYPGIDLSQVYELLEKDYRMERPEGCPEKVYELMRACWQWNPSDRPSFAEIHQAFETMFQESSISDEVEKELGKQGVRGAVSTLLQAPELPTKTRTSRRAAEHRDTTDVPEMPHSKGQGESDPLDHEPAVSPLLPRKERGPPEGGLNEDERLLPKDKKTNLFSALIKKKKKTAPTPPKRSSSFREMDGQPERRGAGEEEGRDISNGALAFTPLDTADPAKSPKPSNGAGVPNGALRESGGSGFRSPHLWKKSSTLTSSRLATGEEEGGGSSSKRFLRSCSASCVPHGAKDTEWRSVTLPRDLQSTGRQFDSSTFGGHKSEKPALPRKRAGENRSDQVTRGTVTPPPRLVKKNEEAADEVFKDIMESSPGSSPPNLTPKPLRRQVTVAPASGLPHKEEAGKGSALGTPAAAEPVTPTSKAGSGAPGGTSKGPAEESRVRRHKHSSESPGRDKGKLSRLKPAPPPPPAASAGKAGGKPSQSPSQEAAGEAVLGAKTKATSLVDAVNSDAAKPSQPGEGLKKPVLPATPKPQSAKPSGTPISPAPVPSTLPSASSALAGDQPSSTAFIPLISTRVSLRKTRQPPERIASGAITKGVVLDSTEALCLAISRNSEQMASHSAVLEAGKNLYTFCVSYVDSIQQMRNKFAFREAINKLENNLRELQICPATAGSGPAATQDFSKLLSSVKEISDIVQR

[6] = molecular target: off-target kinases (Homo sapiens, UniProt Q08345); conditions: DDR1, LanthaScreen Binding
[7] = molecular target: off-target kinases (Homo sapiens, UniProt P00533, L861Q); conditions: EGFR (ErbB1) L861Q (mutant), ZLYTE, ATP Km app
[8] = molecular target: off-target kinases (Homo sapiens, UniProt Q13557); conditions: CAMK2D (CaMKII delta), ZLYTE, ATP Km app
[9] = molecular target: off-target kinases (Homo sapiens, UniProt Q5VT25); conditions: CDC42 BPA (MRCKA), ZLYTE, ATP Km app
[10] = molecular target: off-target kinases (Homo sapiens, UniProt P07949, V804L); conditions: RET V804L, ATP Km app, ZLYTE
[11] = molecular target: off-target kinases (Homo sapiens, UniProt Q9H4B4); conditions: PLK3, ATP Km app, ZLYTE
Chain of off-target kinases (Homo sapiens, UniProt Q9H4B4) (Q9H4B4 whole entry): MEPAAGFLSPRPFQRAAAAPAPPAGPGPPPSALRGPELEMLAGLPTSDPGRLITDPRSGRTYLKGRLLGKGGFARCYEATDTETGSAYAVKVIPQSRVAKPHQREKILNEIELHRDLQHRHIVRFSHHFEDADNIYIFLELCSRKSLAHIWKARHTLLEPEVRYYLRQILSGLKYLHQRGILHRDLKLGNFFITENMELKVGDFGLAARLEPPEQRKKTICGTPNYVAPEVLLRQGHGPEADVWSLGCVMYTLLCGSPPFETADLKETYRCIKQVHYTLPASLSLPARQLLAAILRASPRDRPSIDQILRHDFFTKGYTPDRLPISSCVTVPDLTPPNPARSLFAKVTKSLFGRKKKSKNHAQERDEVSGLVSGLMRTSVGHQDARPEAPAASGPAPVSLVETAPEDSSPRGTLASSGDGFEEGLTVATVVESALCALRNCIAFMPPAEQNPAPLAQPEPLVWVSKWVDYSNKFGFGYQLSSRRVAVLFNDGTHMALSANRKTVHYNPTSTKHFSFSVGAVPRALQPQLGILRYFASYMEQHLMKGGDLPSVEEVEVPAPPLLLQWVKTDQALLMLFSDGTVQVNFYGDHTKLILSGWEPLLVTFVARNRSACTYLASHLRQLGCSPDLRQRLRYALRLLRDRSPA

[12] = molecular target: off-target kinases (Homo sapiens, UniProt O95819); conditions: MAP4K4 (HGK), ATP Km app, ZLYTE
Chain of off-target kinases (Homo sapiens, UniProt O95819) (O95819 whole entry): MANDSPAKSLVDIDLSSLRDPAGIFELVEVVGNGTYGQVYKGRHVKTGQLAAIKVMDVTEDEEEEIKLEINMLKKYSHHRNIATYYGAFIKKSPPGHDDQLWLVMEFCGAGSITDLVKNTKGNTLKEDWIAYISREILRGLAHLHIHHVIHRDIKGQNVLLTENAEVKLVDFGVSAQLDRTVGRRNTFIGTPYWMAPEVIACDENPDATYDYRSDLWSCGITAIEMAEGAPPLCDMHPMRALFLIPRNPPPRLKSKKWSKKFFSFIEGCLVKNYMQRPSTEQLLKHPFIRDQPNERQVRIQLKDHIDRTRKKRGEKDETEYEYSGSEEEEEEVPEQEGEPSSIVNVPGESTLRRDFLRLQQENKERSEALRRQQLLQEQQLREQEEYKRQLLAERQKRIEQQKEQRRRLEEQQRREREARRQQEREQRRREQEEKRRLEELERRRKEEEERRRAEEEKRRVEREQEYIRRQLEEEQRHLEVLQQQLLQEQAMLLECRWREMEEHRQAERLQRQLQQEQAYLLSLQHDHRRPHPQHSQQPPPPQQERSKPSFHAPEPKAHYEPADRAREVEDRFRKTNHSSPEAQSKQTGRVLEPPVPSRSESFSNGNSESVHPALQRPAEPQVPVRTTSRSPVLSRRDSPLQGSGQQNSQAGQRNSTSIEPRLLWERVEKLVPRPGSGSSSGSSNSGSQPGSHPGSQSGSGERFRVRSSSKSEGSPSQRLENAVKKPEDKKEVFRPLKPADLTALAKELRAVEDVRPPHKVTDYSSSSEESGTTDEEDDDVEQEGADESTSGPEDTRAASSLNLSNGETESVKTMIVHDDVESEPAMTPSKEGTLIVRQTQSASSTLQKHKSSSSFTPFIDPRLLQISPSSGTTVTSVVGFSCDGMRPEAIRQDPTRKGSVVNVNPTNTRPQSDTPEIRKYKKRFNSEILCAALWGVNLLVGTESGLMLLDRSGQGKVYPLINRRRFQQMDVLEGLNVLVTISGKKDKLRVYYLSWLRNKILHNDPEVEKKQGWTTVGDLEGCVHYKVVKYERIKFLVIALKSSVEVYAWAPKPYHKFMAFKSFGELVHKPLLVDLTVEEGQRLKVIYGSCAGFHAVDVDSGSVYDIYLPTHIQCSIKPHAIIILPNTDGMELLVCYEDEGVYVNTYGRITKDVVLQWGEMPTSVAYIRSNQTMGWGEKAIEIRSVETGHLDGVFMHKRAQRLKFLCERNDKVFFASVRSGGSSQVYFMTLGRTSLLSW

[13] = molecular target: off-target kinases (Homo sapiens, UniProt P04049, Y340D/Y341D)
[14] = molecular target: off-target kinases (Homo sapiens, UniProt O75914); conditions: PAK3, ZLYTE, ATP Km app
Chain of off-target kinases (Homo sapiens, UniProt O75914) (O75914 whole entry): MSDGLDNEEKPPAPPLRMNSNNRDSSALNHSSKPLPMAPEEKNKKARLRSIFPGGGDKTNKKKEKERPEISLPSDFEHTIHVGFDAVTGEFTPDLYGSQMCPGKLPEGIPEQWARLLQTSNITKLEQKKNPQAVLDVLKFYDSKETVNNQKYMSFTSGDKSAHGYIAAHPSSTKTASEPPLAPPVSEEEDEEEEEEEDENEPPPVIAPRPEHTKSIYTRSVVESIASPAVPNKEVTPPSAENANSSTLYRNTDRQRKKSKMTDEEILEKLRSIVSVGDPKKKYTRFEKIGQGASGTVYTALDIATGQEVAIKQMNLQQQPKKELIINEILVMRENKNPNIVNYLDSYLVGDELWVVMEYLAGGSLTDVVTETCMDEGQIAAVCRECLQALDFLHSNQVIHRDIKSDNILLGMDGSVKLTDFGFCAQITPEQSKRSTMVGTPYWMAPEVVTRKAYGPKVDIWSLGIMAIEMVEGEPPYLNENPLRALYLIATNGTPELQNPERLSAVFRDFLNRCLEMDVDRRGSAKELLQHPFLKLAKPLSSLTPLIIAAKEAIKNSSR

Work on N#Cc1cc(-c2ncnc(Nc3ccc(N4CCN(C5COC5)CC4)cc3)n2)ccc1OC1CCOCC1 [Compound 1, 5-(4-((4-(4-(oxetan-3-yl)piperazin-1-yl)phenyl)amino)-1,3,5-triazin-2-yl)-2-((tetrahydro-2H-pyran-4-yl)oxy)benzonitrile] yielded an inhibition ([1]; read-out: % Inhibition 1) of 1%, an inhibition ([1]; read-out: % Inhibition 2) of 12% and an inhibition ([1]; read-out: % Inhibition Avg) of 6%. It also gave an inhibition ([2]; read-out: % Inhibition 1) of 99%, an inhibition ([2]; read-out: % Inhibition 2) of 100% and an inhibition ([2]; read-out: % Inhibition Avg) of 100%. For the same compound, the inhibition ([3]; read-out: % Inhibition 1) was 27%, the inhibition ([3]; read-out: % Inhibition 2) was 31% and the inhibition ([3]; read-out: % Inhibition Avg) was 29%. The inhibition ([4]; read-out: % Inhibition 1) was 6%, the inhibition ([4]; read-out: % Inhibition 2) was 7% and the inhibition ([4]; read-out: % Inhibition Avg) was 6%. For the same compound, the inhibition ([5]; read-out: % Inhibition 1) was 53%, the inhibition ([5]; read-out: % Inhibition 2) was 50% and the inhibition ([5]; read-out: % Inhibition Avg) was 51%. It also gave an inhibition ([6]; read-out: % Inhibition 1) of 3%, an inhibition ([6]; read-out: % Inhibition 2) of 2% and an inhibition ([6]; read-out: % Inhibition Avg) of 2%. The inhibition ([7]; read-out: % Inhibition 1) was 6%, the inhibition ([7]; read-out: % Inhibition 2) was 5% and the inhibition ([7]; read-out: % Inhibition Avg) was 5%. It also gave an inhibition ([8]; read-out: % Inhibition 1) of 18%, an inhibition ([8]; read-out: % Inhibition 2) of 19% and an inhibition ([8]; read-out: % Inhibition Avg) of 19%. For the same compound, the inhibition ([9]; read-out: % Inhibition 1) was 4%, the inhibition ([9]; read-out: % Inhibition 2) was 4% and the inhibition ([9]; read-out: % Inhibition Avg) was 4%. It also gave an inhibition ([10]; read-out: % Inhibition 1) of 71%, an inhibition ([10]; read-out: % Inhibition 2) of 66% and an inhibition ([10]; read-out: % Inhibition Avg) of 69%. For the same compound, the inhibition ([11]; read-out: % Inhibition 1) was 80%, the inhibition ([11]; read-out: % Inhibition 2) was 76% and the inhibition ([11]; read-out: % Inhibition Avg) was 78%. It also gave an inhibition ([12]; read-out: % Inhibition 1) of 86%, an inhibition ([12]; read-out: % Inhibition 2) of 86% and an inhibition ([12]; read-out: % Inhibition Avg) of 86%. For the same compound, the inhibition ([13]; RAF1 (cRAF) Y340D Y341D (mutant), ZLYTE, ATP 100, read-out: % Inhibition 1) was 5%, the inhibition ([13]; RAF1 (cRAF) Y340D Y341D (mutant), ZLYTE, ATP 100, read-out: % Inhibition 2) was 3% and the inhibition ([13]; RAF1 (cRAF) Y340D Y341D (mutant), ZLYTE, ATP 100, read-out: % Inhibition Avg) was 4%. The inhibition ([13]; RAF1 (cRAF) Y340D Y341D, mutant y, LanthaScreen Binding, read-out: % Inhibition 1) was 15%, the inhibition ([13]; RAF1 (cRAF) Y340D Y341D, mutant y, LanthaScreen Binding, read-out: % Inhibition 2) was 20% and the inhibition ([13]; RAF1 (cRAF) Y340D Y341D, mutant y, LanthaScreen Binding, read-out: % Inhibition Avg) was 18%. The inhibition ([14]; read-out: % Inhibition 1) was 7%, the inhibition ([14]; read-out: % Inhibition 2) was 2% and the inhibition ([14]; read-out: % Inhibition Avg) was 5%.
